Reference: patent US20220281835A1, “PHENOL DERIVATIVES FOR USE AS ANTIMICROBIAL, ANTIBACTERIAL, BACTERICIDE” (SPECIAL PRODUCT'S LINE S.P.A., priority 2019, published 2022)
Values after ≈ are worked out from the molar mass of the structure shown.

Columns and labels:
[1] = test system: S. Aureus strain 1 (collection) mec a+; assay: MIC/MBC broth-dilution (micromethod), CLSI; assay type: cell-based; settings: Staphylococcus aureus; for MBC: kills 99,9% of initial population
Excerpt: (§1) Determination of Minimal Inhibitory Concentration (MIC), Minimal Bactericidal Concentration (MBC), bactericidal curves and killing rate on Gram positive and Gram negative bacteria strains, for the evaluation of the bactericidal activity of compounds of example 1 (n. 1 to 14).
(§2) In details, phenotypic methods based on in vitro MIC and MBC determination have been performed on previously isolated bacterial strains, identified and characterized at the level of their antibiotic susceptibility profile. According to MIC and MBC data, the Killing Rate was calculated as the ratio between MBC and MIC on which basis it is possible to define the compounds tested as bactericides (killing rate=1-4), or bacteriostatic (killing rate >4).
(§3) Preparation of the solution containing molecules: for each molecule to be tested, solutions were made as DMSO Stock, with a concentration of 2.560 mg/ml, used to test 12 dilutions with the following scalar drug concentrations: 512-256-128-64-32-16-8-4-2-1-0.5-0.25 μg/ml. The scalar dilutions were prepared directly on plates by using Mueller Hinton Broth (MHB) as a solvent.
Bacterial suspension preparation: cryostrains preserved at −80° C. were recovered by incubation in growth medium (Brain Heart Infusion Broth, BHI) for 24-48 hours at 37° C. followed by passages in agar growth medium (Columbia Blood Agar). Colonies with less than 30 hours are suspended in MHB with the purpose to prepare a bacterial suspension with a turbidity of 0.5 MF, containing approximately 1.5×10^8 cfu/ml. This injection is additionally diluted in MHB until reaching a final concentration of 5×10^5 cfu/ml (range 3-7×10^5 cfu/ml). Identical volumes of this bacterial suspension are added on a plate, for each well containing drug scalar dilutions, to obtain a final concentration between 512 a 0.25 μg/ml. The set up of bacterial suspensions as well as the passage on slate has always been performed within 30 minutes, in order not to alter the concentration of the bacterial suspension. Simultaneously, check in broth-microdilution only with solvent (in order to exclude that the effect of growth inhibition might be due to the drug solution solvent), positive growth control in absence of DMSO and drug, and negative purity control only with injection broth are performed. As a consequence the slate is incubated at 37° C. for 24 and 48 hours in aerobes. […] The same observations are valid to evaluate 48 hours MIC. After the incubation, an equal volume of bacterial suspension from each well is plated on agar growth medium and incubated for 24-48 hours at a temperature of 37° C. in aerobes, in order to define the MBC after the incubation.
Bacterial strains: the bactericidal and/or bacteriostatic power of the synthesized compounds can be determined by using standard reference strains such as: • 1. S. Aureus ATCC 25923 res kan, tob, res streptogramine (sga-sgb, efflux), res mupirocina (at low level), res trimetoprim; • 2. S. Aureus strain 1 (collection) mec a+, res kan tob gen, res quinolones, lincosamides, res streptogramine (sga-sgb), mlsb+sa constituent, mlsb constituent, res mupirocine (low level), res trimetoprim; • 3. S. Aureus strain 2 (collection) acquired penicillinase, res kan tob, res streptogramine (sga-sgb, efflux), res mupirocine (low level), res trimetoprim; • 4. Enterococcus faecalis ATCC 51299 (str+gen res at high level, mlsb res, simil van b res); • 5. Enterococcus faecalis strain 1 (collection) (str+kan res at high level str res at high level tetracycline res); • 6. Enterococcus faecalis strain 2 (collection) (kan res at high level); • 7. E. coli of Collection: RESISTANT to ampicilline, amox+ac clav, ampicillinr+sulbactam, cefalexine, cefuroxime, cefuroxime axetil, cefixime, cefpodoxime, cefotaxime, ceftazidime, ceftriaxone, netilmicine, tobramicine, ciprofloxcine, trim/sulfametox, esbl pos, SENSITIVE to meropenem and gentamicine, INTERMEDIATE to amikacine; • 8. 8.

[2] = test system: Enterococcus faecalis strain 2 (collection); assay: MIC/MBC broth-dilution (micromethod), CLSI; assay type: cell-based; settings: for MBC: E. FAECALIS strain 2, kills 99,9% of initial population
Excerpt: as §1
as §2, with “Sensitivity tests have been performed in broth-dilution (micromethod) with the purpose to test the possible bacteriostatic and/or bactericidal power in different compounds, in accordance with CLSI guidelines (Clinical and Laboratory Standards Institute). In” for “In”
as §3
Bacterial suspension preparation: cryostrains preserved at −80° C. were recovered by incubation in growth medium (Brain Heart Infusion Broth, BHI) for 24-48 hours at 37° C. followed by passages in agar growth medium (Columbia Blood Agar). Colonies with less than 30 hours are suspended in MHB with the purpose to prepare a bacterial suspension with a turbidity of 0.5 MF, containing approximately 1.5×10^8 cfu/ml. This injection is additionally diluted in MHB until reaching a final concentration of 5×10^5 cfu/ml (range 3-7×10^5 cfu/ml). Identical volumes of this bacterial suspension are added on a plate, for each well containing drug scalar dilutions, to obtain a final concentration between 512 a 0.25 μg/ml. The set up of bacterial suspensions as well as the passage on slate has always been performed within 30 minutes, in order not to alter the concentration of the bacterial suspension. Simultaneously, check in broth-microdilution only with solvent (in order to exclude that the effect of growth inhibition might be due to the drug solution solvent), positive growth control in absence of DMSO and drug, and negative purity control only with injection broth are performed. As a consequence the slate is incubated at 37° C. for 24 and 48 hours in aerobes. The 24 hours MIC is considered as the minimum drug concentration able to inhibit bacterial growth, which makes it possible to observe the absence of bacterial growth and the absence of turbidity. The same observations are valid to evaluate 48 hours MIC. After the incubation, an equal volume of bacterial suspension from each well is plated on agar growth medium and incubated for 24-48 hours at a temperature of 37° C. in aerobes, in order to define the MBC after the incubation. The MBC is evaluated as the minimum concentration of drug able to kill the 99,9% of the initial bacterial population.
Bacterial strains: the bactericidal and/or bacteriostatic power of the synthesized compounds can be determined by using standard reference strains such as: • 1. S. Aureus ATCC 25923 res kan, tob, res streptogramine (sga-sgb, efflux), res mupirocina (at low level), res trimetoprim; • 2. S. Aureus strain 1 (collection) mec a+, res kan tob gen, res quinolones, lincosamides, res streptogramine (sga-sgb), mlsb+sa constituent, mlsb constituent, res mupirocine (low level), res trimetoprim; • 3. S. Aureus strain 2 (collection) acquired penicillinase, res kan tob, res streptogramine (sga-sgb, efflux), res mupirocine (low level), res trimetoprim; • 4. Enterococcus faecalis ATCC 51299 (str+gen res at high level, mlsb res, simil van b res); • 5. […]

[3] = marked *: MIC value read at 48 hours
[4] = E. FAECALIS strain 2, values without asterisk
[5] = E. FAECALIS strain 2, marked *: MIC value read at 48 hours

N#C/C=C/c1ccc(-c2ccc(O)c(C34CC5CC(CC(C5)C3)C4)c2)cc1 (mixture of isomers) [Compound 1]
MBC [1]: 128 µg/mL | MIC [1, 3]: 64 to 128 µg/mL | MBC [2]: 128 µg/mL | MIC [2, 4]: 32 µg/mL

OCC#Cc1ccc(-c2ccc(O)c(C34CC5CC(CC(C5)C3)C4)c2)cc1 [Compound 2, 3-(adamantan-1-yl)-4′-(3-hydroxyprop-1-yn-1-yl)-[1,1′-biphenyl]-4-ol]
MBC [1]: 4 µg/mL (≈ 11.2 µM) | MIC ([1]; values without asterisk): 0.5 µg/mL (≈ 1.39 µM) | MBC [2]: 2 to 4 µg/mL (≈ 5.58 to 11.2 µM) | MIC [2, 4]: 0.5 µg/mL (≈ 1.39 µM)

C/C(=C\c1ccc(-c2ccc(O)c(C34CC5CC(CC(C5)C3)C4)c2)cc1)C(=O)O [Compound 3, E-2-Methyl-3-[3′-(adamantan-1-yl)-4′-hydroxybiphenyl-4-yl]acrylic Acid]
melting point: 200 °C | MBC [1]: 4 to 8 µg/mL (≈ 10.3 to 20.6 µM) | MIC ([1]; values without asterisk): 2 µg/mL (≈ 5.15 µM) | MBC [2]: 8 µg/mL (≈ 20.6 µM) | MIC [2, 5]: 0.5 to 1 µg/mL (≈ 1.29 to 2.57 µM)

N#C/C(=C\c1ccc(-c2ccc(O)c(C34CC5CC(CC(C5)C3)C4)c2)cc1)C(=O)O [Compound 4]
MBC [1]: 4 µg/mL (≈ 10 µM) | MIC ([1]; values without asterisk): 2 µg/mL (≈ 5.01 µM) | MBC [2]: 4 µg/mL (≈ 10 µM) | MIC [2, 5]: 0.5 to 1 µg/mL (≈ 1.25 to 2.5 µM)

O=C(O)/C(F)=C\c1ccc(-c2ccc(O)c(C34CC5CC(CC(C5)C3)C4)c2)cc1 [Compound 5, E-2-Fluoro-3-[3′-(adamantan-1-yl)-4′-hydroxybiphenyl-4-yl]-acrylic Acid]
melting point: 202 °C | MBC [1]: 8 to 16 µg/mL (≈ 20.4 to 40.8 µM) | MIC [1, 3]: 2 to 4 µg/mL (≈ 5.1 to 10.2 µM) | MBC [2]: 16 µg/mL (≈ 40.8 µM) | MIC [2, 4]: 4 µg/mL (≈ 10.2 µM)

CC(C)(C)c1cc(-c2ccc(/C=C/C(=O)O)cc2)ccc1O [Compound 6, E-3-(3′-tert-Butyl-4′-hydroxybiphenyl-4-yl)acrylic Acid]
melting point: 218 °C | MIC ([1]; values without asterisk): 64 µg/mL (≈ 216 µM)

COc1ccc(-c2ccc(C#CC(=O)O)cc2)cc1C12CC3CC(CC(C3)C1)C2 [Compound 7, 4-(3-(1-adamantyl)-4-methoxyphenyl)propiolic acid]
MIC ([1]; values without asterisk): 16 µg/mL (≈ 41.4 µM)

O=C(O)/C=C/c1ccc(-c2ccc(OCC(=O)NO)c(C34CC5CC(CC(C5)C3)C4)c2)cc1 [Compound 9]
MIC ([1]; values without asterisk): 128 µg/mL (≈ 286 µM)

CC(Oc1ccc(-c2ccc(/C=C/C(=O)O)cc2)cc1C12CC3CC(CC(C3)C1)C2)C(=O)NO (stereo not drawn) [Compound 10]
MIC ([1]; values without asterisk): 32 µg/mL (≈ 69.3 µM)
